For assay [1], the target named is T1, PRAS40 (Homo sapiens, UniProt Q96B36).
T1 construct: gene AKT1S1; His-tagged, purchased from Genscript (Nanjing); UniProt Q96B36 (human) given only for the docking receptor
Nature of the assay: isothermal titration calorimetry. The format is binding. The source says:
isothermal titration calorimetry on PRAS40
Background: Isothermal titration calorimetry measures the heat released or taken up as one component is titrated into another.

The target of assay [2] is T1, PRAS40. In words: ligand fishing from Erxian decoction with immobilized PRAS40, LC-MS identification. The format is binding. The note with it: PBS-Tween, pH 7.4, eluted from Ni-NTA beads, identified from extract by MS only.
The mark [3] stands for this setting: read-out: Ka (M^-1) (converted).

Read-outs that look alike come from different tables or passages of the source.

For the compound `c1ccc2[nH]ccc2c1` [indole], the Kd on PRAS40 [1] (setting [3]) and on PRAS40 [1] (read-out: Kd) was 2620 nM each time. Turning to `COc1cc2c(cc1OC)-c1cc3ccc(OC)c(OC)c3c[n+]1CC2` [palmatine], the Kd on PRAS40 [1] (setting [3]) was 352 nM; on PRAS40 [1] (read-out: Kd), 353 nM. In the case of `COc1cc(/C=C/C=O)cc(OC)c1O` [sinapinaldehyde], the “ligand fishing from Erxian decoction with immobilized PRAS40, LC-MS identificati” value (“ligand fishing from Erxian decoction” for short) at PRAS40 [2] (named as PAINS by the paper) was “palmatine, sinapinaldehyde, and 3-chloroaniline as the potential ligands binding to PRAS40”.

For `O=C(O)c1ccc(C(=O)O)cc1` [terephthalic acid], at PRAS40 [2], the “ligand fishing from Erxian decoction” value is “The immobilized PRAS40 isolated indole, 4-nitrophenol, terephthalic acid”.

On to `O=[N+]([O-])c1ccc(O)cc1` [4-nitrophenol], for which the “ligand fishing from Erxian decoction” value on PRAS40 [2] is reported as “The immobilized PRAS40 isolated indole, 4-nitrophenol, terephthalic acid”.

Values taken from PMC10839085, “Screening and evaluation of metabolites binding PRAS40 from Erxian decoction used to treat spinal cord injury” (Frontiers in Pharmacology, 2024).
